# Values quoted from earlier work as cited in patent publication US10646532B2, “Method for preparing water extract of ashwagandha leaves which has enhanced anti-cancer activity utilizing cyclodextrin, and pharmaceutical composition containing ashwagandha leaves” (National Institute of Advanced Industrial Science and …, priority 2014, dated 2020).
# System: cancer cells / normal cells
# Conditions: in vitro test, background art
compound,measurement,value
CC1=C(C)C(=O)OC([C@@H](C)C2(O)CC[C@H]3[C@@H]4[C@@H]5O[C@@H]5C5(O)CC=CC(=O)[C@]5(C)[C@H]4CC[C@@]32C)C1 (stereo partly shown) [withanone],cytotoxicity to cancer cells versus normal cells,selective cytotoxicity to cancer cells
